Laboratory results published in US20260263454A1, “USES OF A CHECKPOINT KINASE 1 (CHK1) INHIBITOR” (Boundless Bio, Inc., priority 2023, published 2026).

Columns and labels:
[1] = tested on: ecDNA+ FGFR2 amplified SNU-16 CDX tumor model; test: Anti-tumor and PD activity in ecDNA+ FGFR2 amplified SNU-16 CDX model, first study; format: in vivo, female SCID beige mice
Description: (§1) Tumor volume (mm^3) data are shown as mean z SEM for each treatment group. […] PO: orally, mpk: mg/kg, QD: once per day, Q2D: once every other day.

[2] = tested on: ecDNA+ FGFR2 amplified SNU-16 CDX tumor model; test: Durability of anti-tumor response in SNU-16 CDX model, subsequent study; format: in vivo, Female BALB/c nude mice; conditions: single agents vs vehicle: Compound 1 50 mg/kg PO Q2D, infigratinib 15 mg/kg PO QD
Description: as §1

[3] = tested on: ecDNA+ CDK4 amplified SJSA-1 CDX tumor model; test: Anti-tumor activity in ecDNA+ CDK4 amplified osteosarcoma SJSA-1 CDX model; format: in vivo, Female Hsd:Athymic Nude-Foxnlnu mice; conditions: vs vehicle
Description: Tumor volume (mm^3) data are shown as mean±SEM for each treatment group. […] PO: orally, QD: once every day, Q2D: once every other day.

Structure (SMILES) | mean % ΔTGI ([1]; Day 12 vs vehicle, single agents: Compound 1 100 mg/kg PO Q2D, infigratinib 15 mg/kg PO QD) | antitumor activity (in words) ([1]; infigratinib 15 mg/kg PO QD alone or with Compound 1 PO Q2D) | tumor FGFR2 gene copy number (qPCR) ([1]; tumors treated for 12 days, infigratinib 15 mg/kg PO QD alone or with Compound 1 25, 50, 100 mg/kg PO Q2D) | mean % ΔTGI [2] | mean % ΔTGI ([3]; single agent 20 mg/kg PO QD, Study 2 (FIG. 3B)) | mean % ΔTGI ([3]; single agent 50 mg/kg PO QD, Study 1 (FIG. 3A))
CCN1CCN(c2ccc(Nc3cc(N(C)C(=O)Nc4c(Cl)c(OC)cc(OC)c4Cl)ncn3)cc2)CC1 [infigratinib] | 97.6% | tumors resumed growth | concomitant increase in FGFR2 gene copy number | 65.4% | – | –
CC(=O)c1c(C)c2cnc(Nc3ccc(N4CCNCC4)cn3)nc2n(C2CCCC2)c1=O [palbociclib] | – | – | – | – | 16.9% | 78.3%
